Test results: ChEMBL document CHEMBL4831485, “Design, synthesis and biological evaluation of exiguamine A analogues as IDO1 inhibitors” (Eur J Med Chem, 2021)
Each block holds one compound with its values, some of them ahead of it.

How the values were obtained:
[1] = biological target: Indoleamine 2,3-dioxygenase 1 (Homo sapiens, UniProt P14902); experiment: Inhibition of human N-terminal His-tagged IDO1 expressed in Escherichia coli assessed as formation of N'-formyl-kynurenine using D-tryptophan as a substrate by methylene blue based assay
[2] = biological target: Tryptophan 2,3-dioxygenase (Homo sapiens) (UniProt P48775); experiment: Inhibition of human N-terminal His-tagged TDO expressed in Escherichia coli assessed as formation of N'-formyl-kynurenine at 1 uM using D-tryptophan as a substrate by methylene blue based assay relative to control
HepG2 = experiment: Cytotoxicity against human HepG2 cells assessed as reduction in cell viability measured after 72 hrs by MTT assay; format: cell-based; conditions: HepG2, 72 h
U-87 MG = experiment: Cytotoxicity against human U87 cells assessed as reduction in cell viability measured after 72 hrs by MTT assay; format: cell-based, U-87MG ATCC
HGC-27 = experiment: Cytotoxicity against human HGC-27 cells assessed as reduction in cell viability measured after 72 hrs by MTT assay; format: cell-based; conditions: HGC-27, 72 h
HCT-116 = experiment: Cytotoxicity against human HCT-116 cells assessed as reduction in cell viability measured after 72 hrs by MTT assay; format: cell-based; conditions: HCT-116, 72 h
MCF7 = experiment: Cytotoxicity against human MCF7 cells assessed as reduction in cell viability measured after 72 hrs by MTT assay; format: cell-based; conditions: MCF7, 72 h

Chain of Indoleamine 2,3-dioxygenase 1 (P14902 whole entry): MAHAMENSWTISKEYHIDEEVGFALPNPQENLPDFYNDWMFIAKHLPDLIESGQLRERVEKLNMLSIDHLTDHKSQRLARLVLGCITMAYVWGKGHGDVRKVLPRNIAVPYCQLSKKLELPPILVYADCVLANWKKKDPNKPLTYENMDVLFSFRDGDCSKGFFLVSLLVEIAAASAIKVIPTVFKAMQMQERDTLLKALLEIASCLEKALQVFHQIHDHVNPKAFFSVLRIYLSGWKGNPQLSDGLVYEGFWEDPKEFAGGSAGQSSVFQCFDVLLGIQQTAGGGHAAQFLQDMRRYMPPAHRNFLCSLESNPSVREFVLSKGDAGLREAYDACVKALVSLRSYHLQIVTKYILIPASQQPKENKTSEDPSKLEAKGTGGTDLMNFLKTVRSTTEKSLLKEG
Chain of Tryptophan 2,3-dioxygenase (Homo sapiens) (P48775 whole entry, looked up): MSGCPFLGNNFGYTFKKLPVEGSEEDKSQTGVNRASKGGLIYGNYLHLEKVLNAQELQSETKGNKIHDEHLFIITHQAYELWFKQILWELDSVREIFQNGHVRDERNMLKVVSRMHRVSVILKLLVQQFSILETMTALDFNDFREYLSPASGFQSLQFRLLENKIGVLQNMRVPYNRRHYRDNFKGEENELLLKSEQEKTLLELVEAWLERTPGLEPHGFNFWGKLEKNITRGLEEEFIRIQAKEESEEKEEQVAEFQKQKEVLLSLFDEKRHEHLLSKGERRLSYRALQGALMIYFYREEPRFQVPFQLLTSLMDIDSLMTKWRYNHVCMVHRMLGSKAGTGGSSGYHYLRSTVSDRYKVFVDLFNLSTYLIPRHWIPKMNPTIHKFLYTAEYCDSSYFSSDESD

IC50 [1]: > 42000 nM
Structure (SMILES): COc1ccc(C)c2c1CC1(C(=O)N(C)C(=O)N1C)C1=C2C(=O)c2[nH]cc(CCNC(=O)c3ccc(C(C)C)cc3)c2C1=O (stereo not given)

IC50 [1]: 330 nM
Structure (SMILES): COc1ccc(CC(=O)NCCc2c[nH]c3c2C(=O)C2=C(C3=O)c3c(C)ccc(OC)c3CC23C(=O)N(C)C(=O)N3C)cc1 (stereo not given)

IC50 [1]: 250 nM
Structure (SMILES): COc1ccc(C)c2c1CC1(C(=O)N(C)C(=O)N1C)C1=C2C(=O)c2[nH]cc(CCNC(=O)c3ccccc3Br)c2C1=O (stereo not given)

IC50 [1]: 79.3 nM | inhibition [2]: 0%
Structure (SMILES): COc1ccc(C)c2c1CC1(C(=O)N(C)C(=O)N1C)C1=C2C(=O)c2[nH]cc(CCNCC(C)(C)C)c2C1=O (stereo not given)
IC50 (HepG2): > 50 µM | IC50 (U-87 MG): > 50000 nM | IC50 (HGC-27): > 50 µM | IC50 (HCT-116): > 50000 nM | IC50 (MCF7): > 50 µM

IC50 [1]: 2500 nM
Structure (SMILES): COc1ccc(C(=O)NCCc2c[nH]c3c2C(=O)C2=C(C3=O)c3c(C)ccc(OC)c3CC23C(=O)N(C)C(=O)N3C)cc1 (stereo not given)

IC50 [1]: > 42000 nM
Structure (SMILES): COc1ccc(C)c2c1CC1(C(=O)N(C)C(=O)N1C)C1=C2C(=O)c2[nH]cc(CCNC(=O)c3cccc(C(F)(F)F)c3)c2C1=O (stereo not given)

IC50 [1]: > 42000 nM
Structure (SMILES): COc1ccc(C)c2c1CC1(C(=O)N(C)C(=O)N1C)C1=C2C(=O)c2[nH]cc(CCNC(=O)c3cc(OC)c(OC)c(OC)c3)c2C1=O (stereo not given)

IC50 [1]: 101 nM | inhibition [2]: 0%
Structure (SMILES): COc1ccc(C)c2c1CC1(C(=O)N(C)C(=O)N1C)C1=C2C(=O)c2[nH]cc(CCN(C)C)c2C1=O (stereo not given)
IC50 (HepG2): > 50 µM | IC50 (U-87 MG): > 50000 nM | IC50 (HGC-27): > 50 µM | IC50 (HCT-116): > 50000 nM | IC50 (MCF7): > 50 µM

IC50 [1]: 210 nM | inhibition [2]: 0%
Structure (SMILES): COc1ccc(C)c2c1CC1(C(=O)N(C)C(=O)N1C)C1=C2C(=O)c2[nH]cc(CCNC(=O)c3ccccc3)c2C1=O (stereo not given)
IC50 (HepG2): 3.53 µM | IC50 (U-87 MG): 2740 nM | IC50 (HGC-27): 4 µM | IC50 (HCT-116): 1700 nM | IC50 (MCF7): 5.35 µM

IC50 [1]: 467 nM
Structure (SMILES): COc1ccc(C)c2c1CC1(C(=O)N(C)C(=O)N1C)C1=C2C(=O)c2[nH]cc(CCNC(=O)OC(C)(C)C)c2C1=O (stereo not given)

IC50 [1]: 220 nM
Structure (SMILES): COc1ccc(C)c2c1CC1(C(=O)N(C)C(=O)N1C)C1=C2C(=O)c2[nH]cc(CCNC(=O)c3cccs3)c2C1=O (stereo not given)

IC50 [1]: 430 nM
Structure (SMILES): COc1ccc(C)c2c1CC1(C(=O)N(C)C(=O)N1C)C1=C2C(=O)c2[nH]cc(CCNC(=O)c3ccccn3)c2C1=O (stereo not given)

IC50 [1]: 265 nM
Structure (SMILES): COc1ccc(C)c2c1CC1(C(=O)N(C)C(=O)N1C)C1=C2C(=O)c2[nH]cc(CCNCc3ccc(C(C)(C)C)cc3)c2C1=O (stereo not given)

IC50 [1]: 578 nM
Structure (SMILES): COc1ccc(C)c2c1CC1(C(=O)N(C)C(=O)N1C)C1=C2C(=O)c2[nH]cc(CCNC(=O)/C=C/c3ccccc3)c2C1=O (stereo not given)

IC50 [1]: > 42000 nM
Structure (SMILES): COc1cc(/C=C/C(=O)NCCc2c[nH]c3c2C(=O)C2=C(C3=O)c3c(C)ccc(OC)c3CC23C(=O)N(C)C(=O)N3C)cc(OC)c1 (stereo not given)

IC50 [1]: 209 nM | inhibition [2]: 0%
Structure (SMILES): COc1ccc(C)c2c1CC1(C(=O)N(C)C(=O)N1C)C1=C2C(=O)c2[nH]cc(CCNC(=O)c3ccco3)c2C1=O (stereo not given)
IC50 (HepG2): 4.18 µM | IC50 (U-87 MG): 2590 nM | IC50 (HGC-27): 3.16 µM | IC50 (HCT-116): 2150 nM | IC50 (MCF7): 6.91 µM

IC50 [1]: > 42000 nM
Structure (SMILES): COc1ccc(C)c2c1CC1(C(=O)N(C)C(=O)N1C)C1=C2C(=O)c2[nH]cc(CCNC(=O)c3ccc(Cl)cc3)c2C1=O (stereo not given)

Continued, compound first:

Structure (SMILES): COC(=O)c1cccc(CNCCc2c[nH]c3c2C(=O)C2=C(C3=O)c3c(C)ccc(OC)c3CC23C(=O)N(C)C(=O)N3C)c1 (stereo not given)
IC50 [1]: 252 nM

Structure (SMILES): COc1ccc(C)c2c1CC1(C(=O)N(C)C(=O)N1C)C1=C2C(=O)c2[nH]cc(CCNCc3cc(F)cc(F)c3)c2C1=O (stereo not given)
IC50 [1]: 213 nM

Structure (SMILES): COc1ccc(C)c2c1CC1(C(=O)N(C)C(=O)N1C)C1=C2C(=O)c2[nH]cc(CCNCc3ccc(C(F)(F)F)cc3)c2C1=O (stereo not given)
IC50 [1]: 161 nM

Structure (SMILES): COc1ccc(C)c2c1CC1(C(=O)N(C)C(=O)N1C)C1=C2C(=O)c2[nH]cc(CCNC(=O)Cc3cccc(C(F)(F)F)c3)c2C1=O (stereo not given)
IC50 [1]: 441 nM

Structure (SMILES): COc1ccc(C)c2c1CC1(C(=O)N(C)C(=O)N1C)C1=C2C(=O)c2[nH]cc(CCNCc3ccc4ccccc4c3)c2C1=O (stereo not given)
IC50 [1]: 271 nM

Structure (SMILES): COc1ccc(C)c2c1CC1(C(=O)N(C)C(=O)N1C)C1=C2C(=O)c2[nH]cc(CCNC(=O)c3cc4ccccc4o3)c2C1=O (stereo not given)
IC50 [1]: 631 nM

Structure (SMILES): COc1ccc(C)c2c1CC1(C(=O)N(C)C(=O)N1C)C1=C2C(=O)c2[nH]cc(CCNCc3ccccc3C)c2C1=O (stereo not given)
IC50 [1]: 242 nM

Structure (SMILES): COc1ccc(C)c2c1CC1(C(=O)N(C)C(=O)N1C)C1=C2C(=O)c2[nH]cc(CCNCc3cccs3)c2C1=O (stereo not given)
IC50 [1]: 370 nM

Structure (SMILES): COc1ccc(C)c2c1CC1(C(=O)N(C)C(=O)N1C)C1=C2C(=O)c2[nH]cc(CCNCc3cccc(OC)c3OC)c2C1=O (stereo not given)
IC50 [1]: 248 nM

Structure (SMILES): COc1ccc(C)c2c1CC1(C(=O)N(C)C(=O)N1C)C1=C2C(=O)c2[nH]cc(CCNCc3cccc(Cl)c3)c2C1=O (stereo not given)
IC50 [1]: 150 nM | inhibition [2]: 0% | IC50 (HepG2): > 50 µM | IC50 (U-87 MG): > 50000 nM | IC50 (HGC-27): > 50 µM | IC50 (HCT-116): > 50000 nM | IC50 (MCF7): > 50 µM

Structure (SMILES): COc1ccc(C)c2c1CC1(C(=O)N(C)C(=O)N1C)C1=C2C(=O)c2[nH]cc(CCNCc3cc(OC)c(OC)c(OC)c3)c2C1=O (stereo not given)
IC50 [1]: 181 nM

Structure (SMILES): NS(=O)(=O)NCCNc1nonc1/C(=N/O)Nc1ccc(F)c(Br)c1 [EPACADOSTAT]
IC50 (HepG2): > 50 µM | IC50 (U-87 MG): > 50000 nM | IC50 (HGC-27): > 50 µM | IC50 (HCT-116): > 50000 nM | IC50 (MCF7): > 50 µM

Structure (SMILES): COc1ccc(C)c2c1CC1(C(=O)N(C)C(=O)N1C)C1=C2C(=O)c2[nH]cc(CCNC(=O)c3ccc4ccccc4c3)c2C1=O (stereo not given)
IC50 [1]: > 42000 nM

Structure (SMILES): COc1ccc(C)c2c1CC1(C(=O)N(C)C(=O)N1C)C1=C2C(=O)c2[nH]cc(CCNCc3ccccc3Br)c2C1=O (stereo not given)
IC50 [1]: 65.3 nM | inhibition [2]: 0% | IC50 (HepG2): 1.56 µM | IC50 (U-87 MG): 1220 nM | IC50 (HGC-27): 2.08 µM | IC50 (HCT-116): 1350 nM | IC50 (MCF7): 1.52 µM

Structure (SMILES): COc1ccc(C)c2c1CC1(C(=O)N(C)C(=O)N1C)C1=C2C(=O)c2[nH]cc(CCNCCc3ccccc3)c2C1=O (stereo not given)
IC50 [1]: 159 nM

Structure (SMILES): COc1ccc(C)c2c1CC1(C(=O)N(C)C(=O)N1C)C1=C2C(=O)c2[nH]cc(CCNCc3ccccc3)c2C1=O (stereo not given)
IC50 [1]: 173 nM

Structure (SMILES): COc1ccc(C)c2c1CC1(C(=O)N(C)C(=O)N1C)C1=C2C(=O)c2[nH]cc(CCNCc3cc4ccccc4s3)c2C1=O (stereo not given)
IC50 [1]: 621 nM

Structure (SMILES): COc1ccc(C)c2c1CC1(C(=O)N(C)C(=O)N1C)C1=C2C(=O)c2[nH]cc(CCNC(=O)c3cc4ccccc4[nH]3)c2C1=O (stereo not given)
IC50 [1]: > 42000 nM

Structure (SMILES): COc1ccc(C)c2c1CC1(C(=O)N(C)C(=O)N1C)C1=C2C(=O)c2[nH]cc(CCNCc3ccc(-c4ccccc4)cc3)c2C1=O (stereo not given)
IC50 [1]: 954 nM

Structure (SMILES): COc1ccc(C)c2c1CC1(C(=O)N(C)C(=O)N1C)C1=C2C(=O)c2[nH]cc(CCNC(=O)c3cc4ccccc4s3)c2C1=O (stereo not given)
IC50 [1]: > 42000 nM

Structure (SMILES): COc1ccc(C)c2c1CC1(C(=O)N(C)C(=O)N1C)C1=C2C(=O)c2[nH]cc(CCNCc3ccc(C)c(C)c3)c2C1=O (stereo not given)
IC50 [1]: 234 nM

Structure (SMILES): COc1ccc(C)c2c1CC1(C(=O)N(C)C(=O)N1C)C1=C2C(=O)c2[nH]cc(CCNC(=O)c3ccc4ccccc4n3)c2C1=O (stereo not given)
IC50 [1]: > 42000 nM

Structure (SMILES): COc1ccc(C)c2c1CC1(C(=O)N(C)C(=O)N1C)C1=C2C(=O)c2[nH]cc(CCNC(=O)/C=C/c3cccc(C(F)(F)F)c3)c2C1=O (stereo not given)
IC50 [1]: > 42000 nM
